Results on seven compounds are retold here after patent EP0348560A1, “Oral composition” (LION CORPORATION, priority 1988, dated 1990).

The experiment has as its system Streptococcus mutans (strain 6715). In words: Incubation Adhesion Method: inhibition of dental plaque formation. To be noted: for Synergistic effect: class by inhibiting rate; for formation of dental plaque: combined with α-bisabolol, conclusion in words from Table 1. In kind it is cell-based. The procedure: α-Bisabolol, menthol, eugenol, 3-octanol, methyl salicylate, carvone and cineol are used as samples to evaluate their effects on inhibiting the formation of dental plaque by Incubation Adhesion Method.
Incubation Adhesion Method
A predetermined amount (0, 4 or 8 µg/mℓ) of α-bisabolol and 125 µg/mℓ of menthol, eugenol, 3-octanol, methyl salicylate, carvone or cineol were added to a BHI (brain heart infusion) medium containing 1% of sucrose. Then, Streptococcus mutans (strain 6715) was inoculated to the medium and incubated at 37°C for 16 hours under an anaerobic condition (N₂: CO₂ :H₂ = 80:10:10). After incubation, the resulting dental plaque was washed twice with water and dispersed in the same amount of 0.5-N NaOH solution. To determine the amount of dental plaque formed, the suspension of dental plaque was examined for absorbance (turbidity) at a wavelength of 550 nm.
Inhiviting rate of dental plaque formation (%) [formula] A : Absorbance (O.D. 550nm) of the control B : Absorbance (O.D. 550nm) of the sample

The mark [1] stands for this setting: 125 µg/mℓ sample alone, content of α-bisabolol 0 µg/mℓ, BHI medium with 1% sucrose, 37°C, 16 hours, anaerobic.
Setting [2] is: 125 µg/mℓ sample combined with α-bisabolol 4 µg/mℓ, BHI medium with 1% sucrose, 37°C, 16 hours, anaerobic.
[3] abbreviates: 125 µg/mℓ sample combined with α-bisabolol 4 µg/mℓ.
[4] abbreviates: 125 µg/mℓ sample combined with α-bisabolol 8 µg/mℓ, BHI medium with 1% sucrose, 37°C, 16 hours, anaerobic.
Setting [5] is: 125 µg/mℓ sample combined with α-bisabolol 8 µg/mℓ.
Where [6] appears, read: α-bisabolol 4 µg/mℓ alone (line 'Control', no sample added).
[7] abbreviates: α-bisabolol 8 µg/mℓ alone (line 'Control', no sample added).

Turning to `CCCCCC(O)CC` (stereo not shown) [3-Octanol, 3-octanol], the “formation of dental plaque” value is listed as “synergistically suppressed”. Under setting [1], the “Amount of dental plaque formation (O.D., 550nm)” value (“Amount” for short) amounted to 0.59 O.D and the “Inhibiting rate of dental plaque formation (%)” value (shortened to “Inhibiting rate … (%)”) came to 4.8%. Under setting [2], the “Amount” value stood at 0.58 O.D and the “Inhibiting rate … (%)” value was determined as 6.5%. Also, under setting [3], the Synergistic effect result was “× (Inhibiting rate is less than 20%)”. In addition, under setting [4], the “Amount” value was determined as 0.06 O.D and the “Inhibiting rate … (%)” value stood at 90.3%. For the same compound, the Synergistic effect entry under setting [5] is “ⓞ (Inhibiting rate is not less than 80%)”.
As to `C=C(C)C1CC=C(C)C(=O)C1` (stereo not shown) [Carvone, carvone, reference compound], the “Amount” value under setting [1] is 0.62 O.D; the “Amount” value under setting [2] amounted to 0.60 O.D; the “Amount” value under setting [4] is on record as 0.42 O.D. Besides, the “Inhibiting rate … (%)” value reads like this: under setting [1], 0%; under setting [2], 3.2%; under setting [4], 32.3%. Moreover, the Synergistic effect result reads like this: under setting [3], “× (Inhibiting rate is less than 20%)”; under setting [5], “Δ (Inhibiting rate is not less than 20%, less than 50 %)”.
Consider `CC12CCC(CC1)C(C)(C)O2` [Cineol, cineol, reference compound], for which the “Amount” value is, setting by setting: under setting [1], 0.62 O.D; under setting [2], 0.59 O.D; under setting [4], 0.53 O.D. Besides, the “Inhibiting rate … (%)” value under setting [1] came out at 0%, the “Inhibiting rate … (%)” value under setting [2] turned out to be 4.8% and the “Inhibiting rate … (%)” value under setting [4] is on record as 14.5%. Further, the Synergistic effect result by setting is: under setting [3], “× (Inhibiting rate is less than 20%)”; under setting [5], “× (Inhibiting rate is less than 20%)”.
As to `C=CCc1ccc(O)c(OC)c1` [Eugenol, eugenol], the “formation of dental plaque” value was “synergistically suppressed”. Besides, under setting [1], the “Amount” value came to 0.62 O.D and the “Inhibiting rate … (%)” value was 0%. Further, under setting [2], the “Amount” value worked out at 0.60 O.D and the “Inhibiting rate … (%)” value came out at 3.2%. Further, under setting [3], the Synergistic effect result was “× (Inhibiting rate is less than 20%)”. Further, under setting [4], the “Amount” value was found to be 0.02 O.D and the “Inhibiting rate … (%)” value is recorded as 96.8%. Further, the Synergistic effect entry under setting [5] is reported as “ⓞ (Inhibiting rate is not less than 80%)”.
As to `CC1CCC(C(C)C)C(O)C1` (stereo not shown) [Menthol, menthol], the “formation of dental plaque” value is recorded as “synergistically suppressed”. Under setting [1], the “Amount” value is reported as 0.60 O.D and the “Inhibiting rate … (%)” value was found to be 3.2%. For the same compound, under setting [2], the “Amount” value came out at 0.01 O.D and the “Inhibiting rate … (%)” value turned out to be 98.4%. Further, the Synergistic effect result under setting [3] is “ⓞ (Inhibiting rate is not less than 80%)”. Further, under setting [4], the “Amount” value was determined as 0.01 O.D and the “Inhibiting rate … (%)” value was found to be 98.4%. Moreover, the Synergistic effect entry under setting [5] was “ⓞ (Inhibiting rate is not less than 80%)”.
With `COC(=O)c1ccccc1O` [Methyl salicylate, methyl salicylate, reference compound], the “Amount” value under setting [1] is 0.61 O.D; the “Amount” value under setting [2] came to 0.61 O.D; the “Amount” value under setting [4] is 0.39 O.D. Moreover, the “Inhibiting rate … (%)” value worked out at 1.6% under setting [1], 1.6% under setting [2] and 37.1% under setting [4]. In addition, the Synergistic effect entry under setting [3] was “× (Inhibiting rate is less than 20%)” and the Synergistic effect entry under setting [5] is given as “Δ (Inhibiting rate is not less than 20%, less than 50 %)”.
With α-bisabolol, under setting [6], the “Amount” value stood at 0.61 O.D and the “Inhibiting rate … (%)” value amounted to 1.6%. In addition, under setting [7], the “Amount” value is given as 0.60 O.D and the “Inhibiting rate … (%)” value was 3.2%.
